Values quoted from earlier work, collected in patent publication US4603142A, “Cholesterol lowering method of use” (Wisconsin Alumni Research Foundation, priority 1984, dated 1986).

Settings: compared with tocotrienols; cited from earlier work

## Vitamin E
  Lowering of cholesterol: does not cause a similar lowering of cholesterol
